# Measurements published in ChEMBL document CHEMBL4706483, “Discovery of novel phosphatidylcholine-specific phospholipase C drug-like inhibitors as potential anticancer agents” (Eur J Med Chem, 2020).
# Active and inactive are the calls of the source. The calls are words filed in the database; no cut-off is given here.
# Target: Phospholipase C (Bacillus cereus) (UniProt P09598)
# Experiment: Inhibition of recombinant Bacillus cereus N-terminal His6-tagged full length PC-PLC 3C Protease cleavage site expressed in Escherichia coli BL21(DE3) cells at 10 uM using phosphatidylcholine as substrate by amplex red assay relative to control
# Phospholipase C (Bacillus cereus), sequence (P09598 whole entry, looked up): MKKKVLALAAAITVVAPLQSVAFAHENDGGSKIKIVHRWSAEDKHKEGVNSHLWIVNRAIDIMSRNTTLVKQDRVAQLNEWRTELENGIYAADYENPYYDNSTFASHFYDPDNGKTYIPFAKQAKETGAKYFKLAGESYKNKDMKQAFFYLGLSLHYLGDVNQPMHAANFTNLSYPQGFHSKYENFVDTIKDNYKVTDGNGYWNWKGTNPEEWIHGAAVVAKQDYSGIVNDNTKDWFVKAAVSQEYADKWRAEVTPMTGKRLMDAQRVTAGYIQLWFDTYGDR
row,Structure (SMILES),inhibition
1,Cc1[nH]c2ccc(Cl)cc2c1CC(=O)O,65%
2,O=C(O)c1cc(NCc2ccccc2C(F)(F)F)ccc1N1CCOCC1,inactive
3,Cc1[nH]c2ccc(C(=O)O)cc2c1CC(=O)O,60%
4,CN1CCN(c2ccc(NCc3cccc(Br)c3)cc2C(=O)O)CC1,inactive
5,O=C(O)c1cc(NCc2cccc(Cl)c2)ccc1N1CCOCC1,89%
6,O=C(O)C1Cc2c([nH]c3ccccc23)C(c2ccc(Cl)cc2Cl)N1 (stereo not drawn),44%
7,O=C(O)C1Cc2c([nH]c3ccccc23)C(c2ccc(O)c(O)c2)N1 (stereo not drawn),75%
8,COc1cc(C2NC(C(=O)O)Cc3c2[nH]c2ccccc32)cc(OC)c1O (stereo not drawn),60%
9,O=C(O)c1cc(NCc2ccc(Cl)cc2Cl)ccc1N1CCOCC1,65%
10,O=C(O)c1cc(NCc2ccccc2)ccc1N1CCOCC1,67%
11,O=C(O)c1ccccc1N1CCOCC1,inactive
12,CSc1ccc(CNc2ccc(N3CCOCC3)c(C(=O)O)c2)cc1,inactive
13,O=C(O)c1cc(NCc2ccccc2Cl)ccc1N1CCOCC1,89%
14,COc1cccc(C(=O)Nc2ccc(O)cc2C(=O)O)c1,47%
15,O=C(O)C1Cc2c([nH]c3ccccc23)C(c2ccc(C(F)(F)F)cc2)N1 (stereo not drawn),37%
16,O=C(O)c1cccc(NS(=O)(=O)c2ccc(C3CCCCC3)cc2)c1,25%
17,CN(C)c1ccc(C2NC(C(=O)O)Cc3c2[nH]c2ccccc32)cc1 (stereo not drawn),43%
18,O=C(O)c1cc(NCc2cccc(Br)c2)ccc1N1CCOCC1,80%
